One assay has as its target KRAS G12D:SOS1 (Homo sapiens, UniProt P01116, G12D). The assay can be described thus: KRAS G12D:SOS1 GDP TR-FRET assay. Particulars: GST-KRAS G12D 37.5 nM, GDP 10 μM, His-SOS1 18 nM. It is filed as binding. On the technique in general: In TR-FRET formats the signal depends on donor and acceptor labels being close together.
The target of a further assay is WT KRAS:SOS1 (Homo sapiens, UniProt P01116). The assay can be described thus: KRAS WT:SOS1 GDP TR-FRET assay. Particulars: GST-WT KRAS 37.5 nM, GDP 10 μM, His-SOS1 18 nM. In kind it is binding.
A further assay deals with GDP-loaded KRAS G12D (Homo sapiens, UniProt P01116, G12D). The assay is described as follows: KRAS G12D Probe Displacement Assay. In kind it is binding.
The target in the next assay is GDP-loaded WT KRAS (Homo sapiens, UniProt P01116). The assay is described as follows: KRAS WT Probe Displacement Assay. It is filed as binding.
Assay [1] concerns pERK1/2 (THR202/TYR204) in AsPC-1 cells. The assay can be described thus: pERK Assay (HTRF) in AsPC-1 cells. Particulars: Homo sapiens, ASPC1, 2 h compound treatment. It is filed as cell-based.
The target in assay [2] is T1, KRAS G12D protein in AsPC-1 cells (Homo sapiens, UniProt P01116, G12D).
T1 construct: endogenous in cells; host or cells: AsPC-1
The assay is described as follows: Western Blotting Assay in AsPC-1 cells. Particulars: 48 h compound treatment, concentration 3 uM. In kind it is cell-based. As for the experimental part:
AsPC-1 cell line was used in this study. […] 400000 AsPC-1 cells per well in 1 mL culture medium were seed in the 12-well plate for 4 hours. Cells were treated with an appropriate dilution series of compounds. After 48 h compound treatment, medium was aspirated, the cells were washed with PBS, and then 30 μL of 1× protein lysis buffer (Cell Signaling Technology) containing protease inhibitors (Merck) and phosphatase inhibitors (Sigma) was added. The cells were lysed, and after centrifugation, the supernatants were quantified by BCA Protein assay Kit (Thermo Fisher). 4× loading Buffer (Thermo Fisher) was added to equal amounts of total protein from each sample and heated at 95° C. for 5 minutes. […] of cell lysates were loaded onto a 12% NuPAGE Bis-Tris Gel (Thermo Fisher), electro-transferred to NC membranes (Thermo Fisher), The membranes were blocked at least 1 hour with Blocking reagent (LI-COR), and then incubated overnight with anti-KRAS (LSBio, LS-C175665) or pERK (Cell Signaling Technology, 4370L) antibodies and as loading control anti-β-actin (Cell Signaling Technology, 3700S) or anti-GAPDH (Cell Signaling Technology, 97166S) at 4° C. with gentle shaking. The membranes were washed three times with TBST, and incubated at least 1 hour at room temperature with anti-mouse or anti-Rabbit secondary fluorescent antibody (Thermo Fisher, A32729; LI-COR, 926-32213). […]
For orientation: Immunoblotting shows a protein as a band on a membrane.

[3] abbreviates: KRAS G12D 0.5 nM, biotinylated probe 2 4 nM, read-out: KRAS G12D Probe Displacement Assay IC50.
[4] abbreviates: WT KRAS 3 nM, biotinylated probe 1 60 nM, read-out: KRAS WT Probe Displacement Assay IC50.

One may read the IC50 as the concentration at which inhibition is half-maximal.

Each structure is given as a SMILES string. Where two headings read alike, the source gives them in different places.

In the case of `C[C@@H](CN1CCOCC1)Oc1nc(N2C3CCC2CNC3)c2cc(Cl)c(-c3ccc(F)c4sc(N)nc34)c(F)c2n1` [Example E41, 4-(4-(3,8-diazabicyclo[3.2.1]octan-8-yl)-6-chloro-8-fluoro-2-(((S)-1-morpholinopropan-2-yl)oxy)quinazolin-7-yl)-7-fluorobenzo[d]thiazol-2-amine], the IC50 at KRAS G12D:SOS1 was 0.011 µM; on WT KRAS:SOS1, 0.438 µM; at GDP-loaded KRAS G12D (setting [3]), 0.011 µM; on GDP-loaded WT KRAS (setting [4]), 0.23 µM; in assay [1] it was 1.48 µM.
For `Cc1cc(N)nc(-c2c(Cl)cc3c(N4CC5CCC(C4)N5)nc(O[C@@H](C)CN4CCCCC4)nc3c2F)c1C(F)(F)F` [Example E35, 6-(4-(3,8-diazabicyclo[3.2.1]octan-3-yl)-6-chloro-8-fluoro-2-(((S)-1-(piperidin-1-yl)propan-2-yl)oxy)quinazolin-7-yl)-4-methyl-5-(trifluoromethyl)pyridin-2-amine], the IC50 on KRAS G12D:SOS1 worked out at 0.022 µM; against WT KRAS:SOS1, 3.3 µM; at GDP-loaded KRAS G12D (setting [3]) it was 0.13 µM; on GDP-loaded WT KRAS (setting [4]) it was 7.3 µM; in assay [1], 4.35 µM.
Taken in the same sequence, the figures for `CN(C)C(=O)CCOc1nc(N2CC3CCC(C2)N3)c2cc(Cl)c(-c3ccc(F)c4sc(N)nc34)c(F)c2n1` [Example E40, 3-((7-(2-amino-7-fluorobenzo[d]thiazol-4-yl)-4-(3,8-diazabicyclo[3.2.1]octan-3-yl)-6-chloro-8-fluoroquinazolin-2-yl)oxy)-N,N-dimethylpropanamide] were 0.024 µM, 2.21 µM, 0.041 µM, 1.4 µM and more than 10 µM.
Turning to `CC1CCCC(C)N1C[C@H](C)Oc1nc(N2CC3CCC(C2)N3)c2cc(Cl)c(-c3ccc(F)c4sc(N)nc34)c(F)c2n1` (some centres unmarked) [Example E38], the IC50 at KRAS G12D:SOS1 turned out to be 0.012 µM; at WT KRAS:SOS1, 0.804 µM; at GDP-loaded KRAS G12D (setting [3]), 0.032 µM; at GDP-loaded WT KRAS (setting [4]) it was 1.4 µM; in assay [1] it was 1.31 µM.
Taken in the same sequence, the figures for `CN1C[C@H](F)C[C@H]1COc1nc(N2C3CCC2CNC3)c2cc(Cl)c(-c3ccc(F)c4sc(N)nc34)c(F)c2n1` [Example E36, 4-(4-(3,8-diazabicyclo[3.2.1]octan-8-yl)-6-chloro-8-fluoro-2-(((2S,4R)-4-fluoro-1-methylpyrrolidin-2-yl)methoxy)quinazolin-7-yl)-7-fluorobenzo[d]thiazol-2-amine] were 0.01 µM, 0.242 µM, 0.0037 µM, 0.12 µM and 0.715 µM.
For `CN1C[C@H](F)C[C@H]1COc1nc(N2CC3CCC(C2)N3)c2cc(C(F)(F)F)c(-c3ccc(F)c4sc(N)nc34)c(F)c2n1` [Example E51, 4-(4-(3,8-diazabicyclo[3.2.1]octan-3-yl)-8-fluoro-2-(((2S,4R)-4-fluoro-1-methylpyrrolidin-2-yl)methoxy)-6-(trifluoromethyl)quinazolin-7-yl)-7-fluorobenzo[d]thiazol-2-amine], in that order: 0.0065 µM, 0.061 µM, 0.0011 µM, 0.033 µM and 0.202 µM.
On to `CN1C[C@H](F)C[C@H]1COc1nc(N2CC3CCC(C2)N3)c2cc(Cl)c(-c3ccc(F)c4sc(N)nc34)c(Cl)c2n1` [Example E53, 4-(4-(3,8-diazabicyclo[3.2.1]octan-3-yl)-6,8-dichloro-2-(((2S,4R)-4-fluoro-1-methylpyrrolidin-2-yl)methoxy)quinazolin-7-yl)-7-fluorobenzo[d]thiazol-2-amine], for which the IC50 was 0.0051 µM against KRAS G12D:SOS1; 0.132 µM against WT KRAS:SOS1; 0.0012 µM at GDP-loaded KRAS G12D (setting [3]); 0.047 µM at GDP-loaded WT KRAS (setting [4]); 0.38 µM in assay [1].
Turning to `Cc1ncsc1-c1ccc([C@H](C)NC(=O)[C@@H]2C[C@@H](O)CN2C(=O)[C@@H](NC(=O)COC2CCN(CC(C)Oc3nc(N4CC5CCC(C4)N5)c4cc(Cl)c(-c5ccc(F)c6sc(N)nc56)c(F)c4n3)CC2)C(C)(C)C)cc1` (stereo partly drawn) [Example E44, (2S,4R)-1-((2S)-2-(2-((1-(2-((7-(2-amino-7-fluorobenzo[d]thiazol-4-yl)-4-(3,8-diazabicyclo[3.2.1]octan-3-yl)-6-chloro-8-fluoroquinazolin-2-yl)oxy)propyl)piperidin-4-yl)oxy)acetamido)-3,3-dimethylbutanoyl)-4-hydroxy-N—((S)-1-(4-(4-methylthiazol-5-yl)phenyl)ethyl)pyrrolidine-2-carboxamide], the “KRAS G12D protein level decrease” value in assay [2] came to 70%.
As to `Cc1cc(N)nc(-c2c(Cl)cc3c(N4CC5CCC(C4)N5)nc(OCC45CCCN4CC(F)C5)nc3c2F)c1C(F)(F)F` (centres unmarked) [Example E50, 6-(4-(3,8-diazabicyclo[3.2.1]octan-3-yl)-6-chloro-8-fluoro-2-((2-fluorotetrahydro-1H-pyrrolizin-7a(5H)-yl)methoxy)quinazolin-7-yl)-4-methyl-5-(trifluoromethyl)pyridin-2-amine], the IC50 at KRAS G12D:SOS1 is 0.0076 µM; against WT KRAS:SOS1, 0.14 µM; at GDP-loaded KRAS G12D, 0.004 µM; on GDP-loaded WT KRAS, 0.16 µM; in assay [1], 0.312 µM.
For `Cc1cc(N)nc(-c2c(Cl)cc3c(N4CC5CCC(C4)N5)nc(OC[C@@]45CCCN4C[C@H](F)C5)nc3c2F)c1C(F)(F)F` [Example E49, 6-(4-(3,8-diazabicyclo[3.2.1]octan-3-yl)-6-chloro-8-fluoro-2-(((2R,7aS)-2-fluorotetrahydro-1H-pyrrolizin-7a(5H)-yl)methoxy)quinazolin-7-yl)-4-methyl-5-(trifluoromethyl)pyridin-2-amine], in that order: 0.0048 µM, 0.035 µM, 0.0031 µM, 0.049 µM and 0.084 µM.
As for `Cc1cc(N)nc(-c2c(Cl)cc3c(N4CC5CCC(C4)N5)nc(OC[C@@H]4C[C@@H](F)CN4C)nc3c2F)c1C(F)(F)F` [Example E37, 6-(4-(3,8-diazabicyclo[3.2.1]octan-3-yl)-6-chloro-8-fluoro-2-(((2S,4R)-4-fluoro-1-methylpyrrolidin-2-yl)methoxy)quinazolin-7-yl)-4-methyl-5-(trifluoromethyl)pyridin-2-amine], the IC50 against KRAS G12D:SOS1 is 0.013 µM; at WT KRAS:SOS1, 0.692 µM; on GDP-loaded KRAS G12D (setting [3]), 0.016 µM; on GDP-loaded WT KRAS (setting [4]), 0.7 µM; in assay [1], 0.807 µM.
With `Nc1nc2c(-c3c(C(F)(F)F)cc4c(N5CC6CCC(C5)N6)nc(OC[C@@]56CCCN5C[C@H](F)C6)nc4c3F)ccc(Cl)c2s1` [Example E83, 4-(4-(3,8-diazabicyclo[3.2.1]octan-3-yl)-8-fluoro-2-(((2R,7aS)-2-fluorotetrahydro-1H-pyrrolizin-7a(5H)-yl)methoxy)-6-(trifluoromethyl)quinazolin-7-yl)-7-chlorobenzo[d]thiazol-2-amine], the IC50 at GDP-loaded KRAS G12D (setting [3]) was determined as 0.00013 µM; on GDP-loaded WT KRAS (setting [4]), 0.0038 µM; in assay [1], 0.061 µM.
Regarding `Nc1nc2c(-c3c(Cl)cc4c(N5CC6CCC(C5)N6)nc(OC[C@@]56CCCN5C[C@H](F)C6)nc4c3Cl)ccc(F)c2s1` [Example E63, 4-(4-(3,8-diazabicyclo[3.2.1]octan-3-yl)-6,8-dichloro-2-(((2R,7aS)-2-fluorotetrahydro-1H-pyrrolizin-7a(5H)-yl)methoxy)quinazolin-7-yl)-7-fluorobenzo[d]thiazol-2-amine], the values for the IC50 (on GDP-loaded KRAS G12D (setting [3]); on GDP-loaded WT KRAS (setting [4]); in assay [1]) were 0.00022 µM, 0.0085 µM and 0.093 µM, respectively.
Regarding `C[C@@H](CN1CCC(F)C1)Oc1nc(N2C3CCC2CNC3)c2cc(Cl)c(-c3ccc(F)c4sc(N)nc34)c(F)c2n1` (stereo partly drawn) [Example E43, 4-(4-(3,8-diazabicyclo[3.2.1]octan-8-yl)-6-chloro-8-fluoro-2-(((2S)-1-(3-fluoropyrrolidin-1-yl)propan-2-yl)oxy)quinazolin-7-yl)-7-fluorobenzo[d]thiazol-2-amine], the IC50 at KRAS G12D:SOS1 was 0.017 µM; against WT KRAS:SOS1, 0.488 µM; at GDP-loaded KRAS G12D (setting [3]), 0.0084 µM; at GDP-loaded WT KRAS (setting [4]), 0.32 µM; in assay [1], 2.55 µM.

These data come from patent publication US20240140957A1, “BRIDGED COMPOUNDS AS KRAS G12D INHIBITOR AND DEGRADER AND THE USE THEREOF” (BeiGene Switzerland GmbH, priority 2021, published 2024).
